Assay: Henry solubility constant Hcp at 298.15 K (mol/(m3 Pa))
Details: reference: Abusallout et al. (2022)

Going from `O=S(=O)(O)CCC(F)(F)C(F)(F)C(F)(F)C(F)(F)F` [1H,1H,2H,2H-perfluorohexane sulfonic acid] to `O=S(=O)(O)CCC(F)(F)C(F)(F)C(F)(F)C(F)(F)C(F)(F)C(F)(F)F` [1H,1H,2H,2H-perfluorooctane sulfonic acid], the “Henry solubility constant Hcp” value falls from 0.0045 to 0.0021.

Compared with `OCCC(F)(F)C(F)(F)C(F)(F)C(F)(F)C(F)(F)C(F)(F)C(F)(F)C(F)(F)C(F)(F)C(F)(F)F` [1,1,2,2-tetrahydroperfluoro dodecanol], `OCCC(F)(F)C(F)(F)C(F)(F)C(F)(F)C(F)(F)C(F)(F)C(F)(F)C(F)(F)F` [1H,1H,2H,2H-perfluorodecan-1-ol] is higher in “Henry solubility constant Hcp” value: 0.00014 for the first, 0.0002 for the second.

Compared with `OCCC(F)(F)C(F)(F)C(F)(F)C(F)(F)C(F)(F)C(F)(F)F` [1H,1H,2H,2H-perfluoro-1-octanol], `FC(F)(F)C(F)(F)C(F)(F)C(F)(F)C(F)(F)C(F)(F)CCI` [1,1,1,2,2,3,3,4,4,5,5,6,6-tridecafluoro-8-iodooctane] is higher in “Henry solubility constant Hcp” value: 0.00033 for the first, 0.0013 for the second.

First: C=CC(F)(F)C(F)(F)C(F)(F)C(F)(F)C(F)(F)C(F)(F)F [(perfluorohexyl)ethene]
Second: FC(F)(F)C(F)(F)C(F)(F)C(F)(F)C(F)(F)C(F)(F)/C=C/I [1H,2H-perfluoro-1-iodooct-1-ene]
The “Henry solubility constant Hcp” value of the first is lower: 0.00011 for the first, 0.00084 for the second.

First: O=S(=O)(O)CCC(F)(F)C(F)(F)C(F)(F)C(F)(F)C(F)(F)C(F)(F)C(F)(F)C(F)(F)F [1H,1H,2H,2H-perfluorodecane sulfonic acid]
Second: O=C(O)CC(F)(F)C(F)(F)C(F)(F)C(F)(F)C(F)(F)C(F)(F)C(F)(F)C(F)(F)F [2H,2H-perfluorodecanoic acid]
The “Henry solubility constant Hcp” value of the first is higher: 0.0022 for the first, 0.00058 for the second.

First: OCCC(F)(F)C(F)(F)C(F)(F)C(F)(F)F [1H,1H,2H,2H-perfluorohexan-1-ol]
Second: FC(F)(F)C(F)(F)C(F)(F)C(F)(F)C(F)(F)C(F)(F)I [perfluorohexyl iodide]
The “Henry solubility constant Hcp” value of the first is higher: 0.0013 for the first, 0.00046 for the second.

Compared with `C=CC(=O)OCCC(F)(F)C(F)(F)C(F)(F)C(F)(F)C(F)(F)C(F)(F)C(F)(F)C(F)(F)F`, `CNS(=O)(=O)C(F)(F)C(F)(F)C(F)(F)C(F)(F)C(F)(F)C(F)(F)C(F)(F)C(F)(F)F` [N-methylperfluorooctanesulphonamide] is lower in “Henry solubility constant Hcp” value: 0.0013 for the first, 0.00044 for the second.

In the case of `CCNS(=O)(=O)C(F)(F)C(F)(F)C(F)(F)C(F)(F)C(F)(F)C(F)(F)C(F)(F)C(F)(F)F` [N-ethylperfluorooctanesulfonamide], the “Henry solubility constant Hcp” value is reported as 0.00094.

— Sander's compilation of Henry's law constants (doi:10.1016/j.hazl.2022.100070)
